Assay results published in US6162417A, “Pyrrolo isoquinolines” (Emory University, priority 1998, dated 2000).
Like-named read-outs stand apart in the source and are kept apart here.

Assay: Tissue distribution of radioactivity after intravenous administration (Table 6)
Type: in vivo, Sprague Dawley rats
Settings: rat, i.v., mean (range) of 4 rats; for tissue uptake at 0.5 h: 30 min; for tissue uptake at 1 h: 60 min; for tissue uptake at 2 h: 120 min
Excerpt: Distribution of Radioactivity in Tissues of Unfasted Male
Sprague Dawley Rats Following Intravenous Administration
of (+)-Trans-1,2,3,5,6,10b-hexahydro-6-
[4-iodophenyl]-pyrrolo[2,1-a]isoquinoline
Mean % Injected Dose/Gram (Range of 4 rats +/SD)

[1] = blood, read-out: Blood, mean % injected dose/gram
[2] = brain, read-out: Brain, mean % injected dose/gram
[3] = heart, read-out: Heart, mean % injected dose/gram
[4] = kidney, read-out: Kidney, mean % injected dose/gram
[5] = liver, read-out: Liver, mean % injected dose/gram
[6] = lung, read-out: Lung, mean % injected dose/gram
[7] = muscle, read-out: Muscle, mean % injected dose/gram
[8] = spleen, read-out: Spleen, mean % injected dose/gram
[9] = thyroid, read-out: Thyroid, mean % injected dose/gram

Ic1ccc([C@@H]2CN3CCC[C@@H]3c3ccccc32)cc1 [(+)-Trans-1,2,3,5,6,10b-hexahydro-6-[4-iodophenyl]-pyrrolo[2,1-a]isoquinoline] showed a tissue uptake at 0.5 h [1] of 0.24 %ID/g, a tissue uptake at 1 h [1] of 0.3 %ID/g and a tissue uptake at 2 h [1] of 0.21 %ID/g. The tissue uptake at 0.5 h [2] was 0.85 %ID/g, the tissue uptake at 1 h [2] was 0.7 %ID/g and the tissue uptake at 2 h [2] was 0.43 %ID/g. It also gave a tissue uptake at 0.5 h [3] of 0.55 %ID/g, a tissue uptake at 1 h [3] of 0.51 %ID/g and a tissue uptake at 2 h [3] of 0.47 %ID/g. The tissue uptake at 0.5 h [4] was 0.84 %ID/g, the tissue uptake at 1 h [4] was 0.66 %ID/g and the tissue uptake at 2 h [4] was 0.79 %ID/g. The tissue uptake at 0.5 h [5] was 1.62 %ID/g, the tissue uptake at 1 h [5] was 1.26 %ID/g and the tissue uptake at 2 h [5] was 1.18 %ID/g. It also gave a tissue uptake at 0.5 h [6] of 1.53 %ID/g, a tissue uptake at 1 h [6] of 1.28 %ID/g and a tissue uptake at 2 h [6] of 0.92 %ID/g. It also gave a tissue uptake at 0.5 h [7] of 0.27 %ID/g, a tissue uptake at 1 h [7] of 0.26 %ID/g and a tissue uptake at 2 h [7] of 0.27 %ID/g. For the same compound, the tissue uptake at 0.5 h [8] was 1 %ID/g, the tissue uptake at 1 h [8] was 0.74 %ID/g and the tissue uptake at 2 h [8] was 0.54 %ID/g. It also gave a tissue uptake at 0.5 h [9] of 1.07 %ID/g, a tissue uptake at 1 h [9] of 1.5 %ID/g and a tissue uptake at 2 h [9] of 1.04 %ID/g.
